Laboratory results published in patent publication US20240382465A1, “AROMATIC ACETYLENE DERIVATIVE, AND PREPARATION METHOD THEREFOR AND USE THEREOF” (priority 2021, published 2024).
Values after ≈ are worked out from the molar mass of the structure shown. Like-named read-outs stand apart in the source and are kept apart here.

How the values were obtained:
[1] = biological target: recombinant Pseudomonas aeruginosa LpxC (Pseudomonas aeruginosa (strain ATCC 15692 / DSM 22644 / CIP 104116 / JCM 14847 / LMG 12228 / 1C / PRS 101 / PAO1), UniProt P47205); test: Inhibition of LpxC enzymatic activity (fluorescamine assay); format: biochemical
Method in brief: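 Recombinant P. aeruginosa LpxC (5 nM) with substrate UDP-3-O-(R-3-hydroxydecanoyl)-GlcNAc (10 μM), 120 min at 25 °C; compound 8 points, 4-fold dilution, 0.61-10,000 nM. Product detected by fluorescamine (ex 390/em 495 nm) after stopping with pH 8.0 phosphate; % inhibition versus DMSO control.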

[2] = test system: K. pneumoniae ATCC13883; test: Antibacterial activity, MIC by broth microdilution (CLSI); format: cell-based; conditions: Klebsiella pneumoniae; K. pneumoniae ATCC13883, 35° C., 18 to 24 hours; read-out: MIC(K. Pneumoniae)
Method in brief: (§1)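 Broth microdilution per CLSI, compound at 64-0.06 μg/mL final in twofold steps (1% DMSO from 100× working solutions). Inoculum 5×10^5 cfu/ml; plates incubated at 35° C for 18-24 hours.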

[3] = test system: E. coli ATCC 25922; test: as above; format: cell-based; conditions: Escherichia coli, ATCC25922; E. coli ATCC 25922, 35° C., 18 to 24 hours; read-out: MIC(E. coli)
Method in brief: as §1

[4] = test system: Klebsiella pneumoniae ATCC 51504; format: in vivo, CD-1 female mice; conditions: CD-1 mice; for Change in the body weight of the mice / Reduction of total bacterial load of Klebsiella pneumoniae ATCC 51504 in the lungs compared with the control group: 150 mg/kg intravenous; for Bacterial load in lung, LOG (CFU/mouse), Mean: 150 mg/kg intravenous 2 hours after infection, lungs taken 24 hours after infection
Description: The efficacy of the compounds of the present disclosure against pulmonary infection caused by Klebsiella pneumoniae ATCC 51504 was determined by the following method. The experimental process is briefly described as follows: The experimental day of inoculating Klebsiella pneumoniae ATCC 51504 was defined as Day 0. On Day −4 and Day −1, CD-1 female mice (6-8 weeks old, purchased from VitalRiver Experimental Animal Technology Co., Ltd., divided into 3 groups, 5 animals in each group) were intraperitoneally injected with cyclophosphamide to induce an immunosuppressive state in mice. Klebsiella pneumoniae ATCC 51504 cells were cultured in advance on a Muaeller-Hinton agar culture plate in a 37° C. incubator overnight. The single colonies were collected, suspended in physiological saline, and adjusted to the required concentration using a turbidity meter. CD-1 female mice were inoculated via intranasal instillation. Each mouse was inoculated with 50 μL of bacterial solution, with an inoculation volume of 1×10^7 CFU/mouse. Two hours after infection, CD-1 female mice were intravenously administered with compound 17 and compound 32 at 150 mg/kg (solvent: 10% HP-β-CD in Sterile Water for Injection). 24 hours after infection, CD-1 female mice were euthanized. The lung tissue was taken, homogenized with physiological saline, and then diluted 10 times in a gradient for a total of 5 times. Then, 10 μL of lung tissue homogenate of each dilution ratio was taken, and inoculated into bacterial culture plates, which were incubated in a 37° C. incubator overnight, then photographed and saved. A culture plate with an appropriate dilution ratio was selected to count the number of colonies and calculate the bacterial load in the lung tissue to evaluate the efficacy of the drug in inhibiting bacteria. The determination results of the efficacy of the compounds of the present disclosure on pulmonary infection caused by Klebsiella pneumoniae are shown in Tables 4 and 5 below.

[5] = Pharmacokinetic assay in mice; format: in vivo; conditions: ICR mice, 15 mg/kg, IV; for AUC(0-inf) / clearance / half-life / Vd: male, mouse, plasma; for AUC(0-inf): read-out: Area under curve AUC0-∞; for clearance: read-out: Clearance CL; for half-life: read-out: Half life T½ (converted); for Vd: read-out: Volume of distribution Vdss
Description: ICR mice were used as test animals. The injected compounds 17 and 32 of the present disclosure were measured using the LC/MS/MS method to determine the drug concentrations in plasma at different times, in order to study the pharmacokinetic characteristics of the compounds of the present disclosure in mice.
ICR mice, male, weighing 27.8-38 g, were purchased from VitalRiver Laboratory Animal Technology Co., Ltd.
An appropriate amount of the pharmaceutical compound was weighed, added with an appropriate amount of 10% HP-β-CD, vortexed, sonicated for 20 minutes to dissolve the particles, and filtered (PTFE, […]) to obtain […] of a colorless solution.
ICR mice were divided into groups of injection of each test compound (nine mice in each group), fasted overnight, then administered by injection (IV, at an amount of 15 mg/kg and a volume of 5 mL/kg), and fed 4 hours after administration.
About 0.1 mL of blood was collected from the orbit before administration and 0.083 hours, 0.25 hours, 0.5 hours, 1 hour, 2 hours, 4 hours, 8 hours, 12 hours and 24 hours after administration. The whole blood samples were placed in EDTA-K2-containing anticoagulant tubes. After collected, the blood samples were placed on ice, and centrifuged to separate plasma (centrifugation conditions: 1500 g, 10 minutes). The collected plasma was stored at −40 to −20° C. before analysis.
The content of the compound to be tested in the plasma of mice after injection was determined using LC-MS/MS.

[6] = recombinant P. aeruginosa LpxC 5 nM, substrate 10 μM, 25° C., 120 minutes, read-out: IC50

Work on C[C@H](O)c1nccn1Cc1cc(-c2ccc(C#Cc3ccc(CN4CCC(C(=O)O)CC4)cc3)cc2)on1 [Example 17, (S)-1-(4-((4-(3-((2-(1-hydroxyethyl)-1H-imidazol-1-yl)methyl)isoxazol-5-yl)phenyl)ethynyl)benzyl)piperidin-4-carboxylic acid] yielded an IC50 [1, 6] of 6.7 nM, an MIC [2] of 8 µg/mL (≈ 15.7 µM) and an MIC [3] of 4 µg/mL (≈ 7.83 µM). For the same molecule, the “Change in the body weight of the mice” value [4] was “no significant change”, the “Reduction of total bacterial load of Klebsiella pneumoniae ATCC 51504 in the lungs compared with the control group” value [4] was 4.78 log value and the “Bacterial load in lung, LOG (CFU/mouse), Mean” value [4] was 4.17 LOG (CFU/mouse). The “Pharmacokinetic properties (conclusion)” value [5] was “good pharmacokinetic properties”, the AUC(0-inf) [5] was 22500 ng·h/mL and the clearance [5] was 11.1 mL/min/kg. It also gave a half-life [5] of 1.3 h and a Vd [5] of 0.48 L/kg.

Molecule C[C@H](O)c1nccn1Cc1cc(-c2ccc(C#Cc3ccc(CN4CC(CC(=O)O)C4)cc3)cc2)on1 [Example 32, (S)-2-(1-(4-((4-(3-((2-(1-hydroxyethyl)-1H-imidazol-1-yl)methyl)isoxazol-5-yl)phenyl)ethynyl)benzyl)azetidin-3-yl)acetic acid] has an IC50 [1, 6] of 19.8 nM, an MIC [2] of 4 µg/mL (≈ 8.06 µM) and an MIC [3] of 2 µg/mL (≈ 4.03 µM). For the same molecule, the “Change in the body weight of the mice” value [4] was “no significant change”, the “Reduction of total bacterial load of Klebsiella pneumoniae ATCC 51504 in the lungs compared with the control group” value [4] was 4.24 log value and the “Bacterial load in lung, LOG (CFU/mouse), Mean” value [4] was 4.42 LOG (CFU/mouse). The “Pharmacokinetic properties (conclusion)” value [5] was “good pharmacokinetic properties”, the AUC(0-inf) [5] was 20300 ng·h/mL and the clearance [5] was 12.3 mL/min/kg. For the same molecule, the half-life [5] was 1.21 h and the Vd [5] was 0.612 L/kg.

In the case of C[C@H](O)c1nccn1Cc1cc(-c2ccc(C#Cc3ccc(CN4CCC(O)CC4)nc3)cc2)on1 [Example 36, (S)-1-((5-((4-(3-((2-(1-hydroxyethyl)-1H-imidazol-1-yl)methyl)isoxazol-5-yl)phenyl)ethynyl)pyridin-2-yl)methyl)piperidin-4-ol], the IC50 [1, 6] is reported as 8.33 nM, the MIC [2] is reported as 4 µg/mL (≈ 8.27 µM) and the MIC [3] is reported as 2 µg/mL (≈ 4.14 µM).

With C[C@H](O)c1nccn1Cc1cc(-c2ccc(C#Cc3ccc(CNC4CCS(=O)(=O)C4)cc3)cc2)on1 (stereo partly shown) [Example 31] the IC50 [1] was 6.06 nM, the MIC [2] was 4 µg/mL (≈ 7.74 µM) and the MIC [3] was 2 µg/mL (≈ 3.87 µM).

For CC(=O)c1ccc(C#Cc2ccc(-c3cc(Cn4ccnc4[C@H](C)O)no3)cc2)cc1 [Example 26, (S)-1-(4-((4-(3-((2-(1-hydroxyethyl)-1H-imidazol-1-yl)methyl)isoxazol-5-yl)phenyl)ethynyl)phenyl)ethan-1-one], the IC50 [1, 6] was 71.7 nM, the MIC [2] was 0.5 µg/mL (≈ 1.22 µM) and the MIC [3] was 0.125 µg/mL (≈ 0.304 µM).

Molecule C[C@H](O)c1nccn1Cc1cc(-c2ccc(C#Cc3ccc(CNCCO)nc3)cc2)on1 [Example 60] has an IC50 [1, 6] of 26.4 nM, an MIC [2] of 4 µg/mL (≈ 9.02 µM) and an MIC [3] of 2 µg/mL (≈ 4.51 µM).
